Data published in patent US5981255A, “Alkaline protease, process for the production thereof, use thereof, and microorganism producing the same” (priority 1995, dated 1999).
Like-named read-outs stand apart in the source and are kept apart here.

Test system: alkaline protease API-26 produced by Bacillus sp. SD 114 (FERM BP-5736)
Format: biochemical
Method: Add 50 μl of the enzyme solution diluted appropriately to 500 μl of 50 mM Atkins-Pantin borate buffer, pH10, and pre-incubate at 30° C. for 3 to 5 minutes. To this solution, add 500 μl of 2% Hammarsten*s casein solution, pH 10, and after 10 minutes, stop the reaction by adding 2 ml of trichloroacetic acid (TCA) solution (0.032 M TCA solution adjusted to pH 4 with acetate buffer). Leave at 30° C. for more than 10 minutes, and filter with paper filter No.2 (Toyo Roshi). To 1 ml of filtrate add 5 ml of 0.4 M sodium carbonate and 1 ml of phenol reagent diluted 6-fold with water. Leave at 30° C. for 20 minutes for coloring, and then determine the absorbance at 660 nm. The unit of the protease activity is described by the katal. One katal is defined as the activity that the protease reacting with casein as a substrate at pH 10 and at 30° C. produces a degradation product with the absorbance at 660 nm equivalent to one mole of tyrosine.
Effects of various inhibitors against this enzyme were investigated according to the following conditions and procedure:
A solution containing this enzyme at about 20 nkatal/ml in 50 mM borate buffer, pH 10 was prepared. To this solution, EDTA, p-mercuribenzoic acid (PCMV) or phenylmethanesulfonyl fluoride (PMSF) was added at a concentration shown in Table 4. After incubating at 30° C. for 30 minutes, the enzyme activity was determined.

| SMILES | Activity (relative activity, enzyme with no inhibitor = 100%) (PCMV 1 mM, 50 mM borate buffer pH 10, incubated at 30° C. for 30 minutes, enzyme about 20 nkatal/ml) [%] | Activity (relative activity, enzyme with no inhibitor = 100%) (pH 10) |
| --- | --- | --- |
| O=C(O)c1cc[c]([Hg][OH])cc1 [PCMV, p-mercuribenzoic acid] | 100 | – |
| O=C(O)CN(CCN(CC(=O)O)CC(=O)O)CC(=O)O [EDTA, ethylenediaminetetraacetic acid] | – | 99 |
